From publication PMC5922347, “Application of polymersomes engineered to target p32 protein for detection of small breast tumors in mice” (Oncotarget, 2018)
Where “and” joins values, the source holds several entries; their conditions need not be identical. Equal values may be shown once.

Experiments:
[1] = system: human recombinant p32 protein; assay: Binding of radiolabeled polymersomes to p32-coated magnetic beads; settings: p32-coated Ni-NTA magnetic beads, 1 h, room temperature, 1% BSA, gamma counter, N=3
Procedure: Recombinant hexahistidine–tagged p32 was bacterially expressed and purified as previously described. For protein binding assays, Ni-NTA magnetic agarose beads (Qiagen, Germany) in binding buffer (50 mM Tris pH 7.4, 150 mM NaCl, 5mM imidazole) were coated with p32 protein at 15 μg of protein/10μL beads. Radiolabeled polymersomes were incubated with the p32-coated beads in binding buffer containing 1% BSA at room temperature for 1 h. The magnetic beads were washed with binding buffer and resuspended in a final volume of 1mL of binding buffer. The radioactivity of each sample was quantified by automatic gamma counter (2470 Wizard 2, Perkin Elmer).

NRP-1 [2] = target: T1, NRP-1 (Homo sapiens, UniProt O14786); assay: Binding of radiolabeled polymersomes to NRP1-coated magnetic beads; settings: 1 h incubation, gamma counter, N=3
T1 sequence (O14786 22-923): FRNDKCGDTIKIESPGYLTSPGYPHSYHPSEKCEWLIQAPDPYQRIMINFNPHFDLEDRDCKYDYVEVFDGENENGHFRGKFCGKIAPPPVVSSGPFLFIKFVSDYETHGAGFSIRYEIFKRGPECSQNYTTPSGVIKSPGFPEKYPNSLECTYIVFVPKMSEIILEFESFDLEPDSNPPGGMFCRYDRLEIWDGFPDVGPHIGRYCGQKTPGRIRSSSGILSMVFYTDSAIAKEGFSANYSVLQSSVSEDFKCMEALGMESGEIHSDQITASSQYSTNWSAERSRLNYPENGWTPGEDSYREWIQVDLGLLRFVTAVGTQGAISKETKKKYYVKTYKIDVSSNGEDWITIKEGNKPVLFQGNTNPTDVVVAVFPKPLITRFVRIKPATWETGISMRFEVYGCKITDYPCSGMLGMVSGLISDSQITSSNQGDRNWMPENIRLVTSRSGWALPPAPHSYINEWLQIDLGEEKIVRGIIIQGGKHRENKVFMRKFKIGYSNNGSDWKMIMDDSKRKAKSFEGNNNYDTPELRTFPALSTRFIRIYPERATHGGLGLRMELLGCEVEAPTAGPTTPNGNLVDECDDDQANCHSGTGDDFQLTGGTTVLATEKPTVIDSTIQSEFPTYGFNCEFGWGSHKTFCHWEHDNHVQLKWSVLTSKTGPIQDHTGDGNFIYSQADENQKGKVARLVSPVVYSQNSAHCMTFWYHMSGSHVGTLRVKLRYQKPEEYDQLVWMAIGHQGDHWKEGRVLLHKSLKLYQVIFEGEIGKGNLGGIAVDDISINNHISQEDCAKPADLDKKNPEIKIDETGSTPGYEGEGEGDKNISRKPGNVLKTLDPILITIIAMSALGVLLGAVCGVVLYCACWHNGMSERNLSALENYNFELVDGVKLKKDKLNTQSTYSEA

[3] = system: orthotopic 4T1 breast tumors; assay: In vivo PET-CT imaging of radiolabeled polymersomes in 4T1 tumor mice; design: species or system Balb/c mice
Procedure: (§1) For tumor induction, 1 million 4T1 cells in 50μL of PBS were orthotopically implanted in the mammary gland of Balb/c mice (Charles River Laboratories, Spain). After 3 days, when the tumor volume had reached ∼18 mm^3, the mice were injected in tail vein with 3.7-7.4MBq of radiolabeled polymersomes (1mg polymer, 100 μL, N=5 mice) and subjected to PET-CT scans. During the scan acquisitions the mice were kept anesthetized with 1.5−2% isofluorane blended with O2. The PET-CT scans were performed at 10 min, 2, 6, 12, 24, and 48 h using the Argus PET-CT scanner (Sedecal, Molecular Imaging, Spain). First, PET scans were acquired using the following acquisition protocol: whole body emission scan, 2 beds, 10 min of total acquisition time for the scans at 10 min, 2, 6, 12, and 24 h post-injection and 20 min for the 48 h time point. The acquisition method was static, using 400-700KeV energetic window, FBP reconstruction algorithm, with correction for scatter coincidences. For the CT scans the used current was 140μA, 40kV of voltage, rotation of 360 degrees, 4 shoots, 1 bed, acquisition time of 6 min, and a reconstruction binning of 2. After 48 h of radiolabeled polymersome injection the mice were sacrificed and the tumor, blood, and organs were excised and further used for biodistribution studies. The PET-CT images were processed with the Medical Image Data Examiner AMIDE software. The CT and PET images were overlaid, the tumor volume was manually extracted from the CT scans and the same ROI was applied in the PET images, averaged, and expressed as percentage of injected dose per cubic centimeter of tissue (ID/cc). For the rendered 3D PET-CT images, PMOD image analysis software (PMOD Technologies Ltd, Zürich, Switzerland) was used. A 3D Gauss Filter of 1.5x1.5x1.5mm was applied to the PET image in order to increase the signal to noise ratio for 3D visualization.

[4] = system: orthotopic 4T1 breast tumors; assay: Ex vivo biodistribution by gamma counter in 4T1 tumor mice; design: species or system Balb/c mice; settings: for Increase in tumor accumulation by LinTT1 functionalization: versus untargeted polymersomes, 48 h, % ID/g
Procedure: as §1
(§2) For biodistribution studies, the tumor, blood, and organs were weighed and the radioactivity was measured using the automatic gamma counter. A standard curve was generated using ^124I to determine the relationship between cpm and Bq. The biodistribution was expressed as percentage of injected dose per gram of tissue (ID/g). To determine the elimination rate of polymersomes, the radioactive signal in the whole mouse body was measured from the PET images at 10 min, 2, 6, 12, 24, and 48 h post-injection and normalized by the signal at 10 min post-injection. The elimination rate was expressed as signal in mouse x 100 divided by the signal at time zero.

[5] = Elimination rate of 124I from whole-body PET signal; design: species or system Balb/c mice; settings: mouse, in vivo
Procedure: as §2

NRP-1 [6] = target: T1, NRP-1; settings: unless proteolytically processed by uPA; cited from earlier work
[7] = DLS size and polydispersity of polymersomes; assay type: physicochemical; settings: 3 independent measurements
Procedure: (§3) DLS and Z-potential measurements (Zetasizer Nano ZS, Malvern Instruments, USA) were used to assess the average size, polydispersity, and surface charge of polymersome preparations. The size was measured at a concentration of 1 mg polymer/mL in PBS (10 mM of phosphate and 137 mM of NaCl). The z-potential was measured at 0.2 mg of polymer/mL in NaCl 10 mM). TEM was used to assess the size and morphology of assembled vesicles. Briefly, polymersomes were deposited from a water solution onto copper grids at 1mg/mL, stained with 0.75% phosphotungstic acid (pH 7), air-dried, and imaged by TEM (Tecnai 10, Philips, Netherlands). The number of polymersomes in the suspension was measured using the ZetaWiew instrument (Particle Metrix GmbH, Germany).

[8] = Z-potential measurement of polymersomes; assay type: physicochemical; settings: 0.2 mg polymer/mL in NaCl 10 mM; 3 independent measurements
Procedure: as §3

[9] = 48 h after i.v. injection, gamma counter

Substance: Cys-Tyr-Ahx-LinTT1 [LinTT1-Tyr-^124I-PS, 124I-radiolabeled PEG-PCL polymersomes functionalized with Cys-Tyr-Ahx-LinTT1 peptide]
- Increase in binding to p32 beads compared to non-targeted polymersomes [1]: ~10 fold
- Binding to NRP-1 (NRP-1 [2]): did not bind
- AUC in tumor, increase over non-targeted polymersomes ([3]; AUC of % ID/cc tumor versus time, 10 min to 48 h, N=5 mice): ~60%
- Tumor accumulation at 48 h ([3]; PET quantification, 48 h after i.v. injection, N=5 mice, SEM): 12±0.9 ID/cc
- Tumor accumulation at 24 h, increase over untargeted polymersomes ([3]; PET, 24 h after injection, N=5 mice): 67%
- Accumulation in tumor at 24 h ([3]; i.v., 1 mg polymer, tumors ~20 mm^3, 24 h after administration, PET quantification): up to 20 % ID/cc
- Tumor accumulation (no time stated) ([3]; i.v., PET quantification, discussion statement): > 20 % ID/cc
- Accumulation in sentinel lymph node relative to Tyr-124I-PS [4, 9]: more than 2 fold
- Ratio of % ID/g in tumor to liver [4, 9]: 2.5 times
- Accumulation in tumors at 48 h ([4]; excised tumors, gamma counter, 48 h after i.v. injection, N=6, SEM): 26±3 % ID/g
- Increase in tumor accumulation by LinTT1 functionalization [4]: > 70%
- Increase in tumor accumulation by LinTT1 functionalization ([4]; listed as LinTT1-polymersomes): about 70%
- Injected polymersomes (124I) remaining in the body after 48 h [5]: 45%
- Injected polymersomes (124I) remaining in the body at 24 h [5]: 67%

Substance: AKRGARSTA [LinTT1]
- Binding of the peptide to NRP-1 (NRP-1 [6]): does not bind

Substance: Cys-Tyr-Ahx-LinTT1 [LinTT1-Tyr-PS, PEG-PCL polymersomes functionalized with Cys-Tyr-Ahx-LinTT1 peptide]
- Pdi ([7]; 1 mg polymer/mL in PBS): 0.15
- Size (hydrodynamic diameter) ([7]; intensity distribution, 1 mg polymer/mL in PBS (10 mM phosphate, 137 mM NaCl)): ~130 nm and 124 ± 62 nm
- Z-pot [8]: -0.1 ± 4 mV
